Reference: US3987197A, “3-(2'-Fluoro-4-biphenylyl)-butyric acid and salts thereof” (Boehringer Ingelheim GmbH, priority 1972, dated 1976)

Experiments:
[1] = acute toxicity in the rat, oral; details: in vivo, male and female FW 49-rats (1:1), oral as trituration in tylose, 14 days, Litchfield and Wilcoxon, 95% confidence limits, read-out: acute toxicity in the rat LD50 per os
Description: (§1) The compounds were tested by standard test methods for their anti-exudativeeffects on the kaolin edema and carrageenin edema of the hind paws of the rat and for their acute toxicity by oral administration to rats.
After oral administration to male and female FW 49-rats (ratio 1:1) having an average body weight of 135 gm, the acute toxicity (LD50 ) was determined. The substances were administered orally as trituration in tylose.
The calculation of the LD50 -values was effected, as far as possible, according to the method of Litchfield and Wilcoxon, based on the percentage of animals which died within 14 days after administration of the different doses.

in vivo = details: rat, po
Description: The therapeutic index, as a measure for the therapeutic usefulness, was calculated by forming the quotient of the LD50 -value and the ED35 -value derived from the tests for anti-exudative activity against the kaolin and carrageenin edema.

[2] = test system: kaolin and carrageenin edema; experiment: antiexudative effect, average of kaolin and carrageenin edema tests; format: in vivo; details: Rattus norvegicus, po; arithmetically averaged value from ED35 kaolin edema and ED35 carrageenin edema
From the text: *arithmetically averaged value from ED35 kaolin edema and ED35

[3] = test system: carrageenin edema of the hind paws of the rat; experiment: carrageenin edema of the hind paw of the rat, anti-exudative effect, oral; format: in vivo; details: 3 h, FW 49-rats, oral 60 minutes before edema, 35% reduction of swelling three hours after provocation, graphic extrapolation, read-out: carrageenin edema ED35 per os
Description: as §1
(§2) Male FW 49-rats of an average weight of 120-150 gm were orally treated with the test compounds 30 minutes before inducement of the edema with the aid of an esophageal tube. Five hours after the provocation of the edema the averaged values of the swelling caused in the paws of the rats treated with the compounds were compared with those values measured on blind-treated control animals. By graphic extrapolation the dose leading to a 35% reduction of the swelling (ED35) was calculated from the percent reduction values measured by administration of different doses.
The provocation of the carrageenin edema was effected according to the method of Winter et al [Proc. Soc. exp. Biol. Med. 111, 544 (1962)] by subplantary injection of 0.05 ml of a 1% solution of carrageenin in a 0.85% solution of sodium chloride. The test compounds were orally administered 60 minutes before the provocation of the edema.
For the calculation of the reductive effect on the edema the values measured three hours after the provocation of the edema were used. All the other details were the same as described above in the case of the kaolin edema.

[4] = test system: kaolin edema of the hind paws of the rat; experiment: kaolin edema of the hind paw of the rat, anti-exudative effect, oral; format: in vivo; details: 5 h, male FW 49-rats, oral 30 minutes before edema, 35% reduction of swelling five hours after provocation, graphic extrapolation, read-out: kaolin edema ED35 per os
Description: as §1
The kaolin edema was induced according to the method of Hillebrecht [Arzneimitted-Forsch. 4, 607 (1954)] by subplantary injection of 0.05 ml of a 10% suspension of kaolin in a 0.85% sodium chloride solution. The measurement of the thickness of the paws was done by using the technique of Doepfner and Cerletti [Int. Arch. Allergy. Immunol. 12, 89 (1958)].
as §2

## CC(CC(=O)O)c1ccc(-c2ccccc2F)cc1 (racemic) [A, 3-(2'-fluoro-4-biphenylyl)-butyric acid]
[1]
  LD50 at 336 h: 540 mg/kg
In vivo
  selectivity ratio: 36.5
[2]
  ED35: 14.8 mg/kg
[3]
  ED35: 10.5 mg/kg
[4]
  ED35: 19 mg/kg
